How the values were obtained:
Experiment in all cases: KINOMEscan
Format in all cases: binding
Details in all cases: read-out: % Ctrl
[1] = target: T1, DYRK1A (Homo sapiens, UniProt Q13627)
T1 construct: purchased DiscoveRx KINOMEscan
How it was run: (§1)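 Competition binding panel of 442 non-mutant kinases: test compound at 5 and 10 μM competed with an active-site-directed ligand for 1 h with shaking. Bound kinase was eluted with 0.5 μM ligand and quantified by qPCR; %Ctrl = (compound − positive control)/(DMSO − positive control) × 100, lower meaning tighter binding.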

[2] = target: T2, MST3 (Homo sapiens, UniProt Q9Y6E0)
T2 construct: purchased DiscoveRx KINOMEscan
How it was run: as §1

[3] = target: T3, BIKE (Homo sapiens, UniProt Q9NSY1)
T3 construct: purchased DiscoveRx KINOMEscan
How it was run: as §1

[4] = target: T4, CDK2 (Homo sapiens, UniProt P24941)
T4 construct: purchased DiscoveRx KINOMEscan
How it was run: as §1

[5] = target: T5, TRPM6 (Homo sapiens, UniProt Q9BX84)
T5 construct: purchased DiscoveRx KINOMEscan
How it was run: as §1

[6] = target: T6, EGFR (Homo sapiens, UniProt P00533)
T6 construct: purchased DiscoveRx KINOMEscan
How it was run: as §1

[7] = target: T7, ULK2 (Homo sapiens, UniProt Q8IYT8)
T7 construct: purchased DiscoveRx KINOMEscan
How it was run: as §1

[8] = target: T8, MEK6 (Homo sapiens, UniProt P52564)
T8 construct: purchased DiscoveRx KINOMEscan
How it was run: as §1

[9] = target: T9, ADCK4 (Homo sapiens, UniProt Q96D53)
T9 construct: purchased DiscoveRx KINOMEscan
How it was run: as §1

[10] = target: T10, AURKA (Homo sapiens, UniProt O14965)
T10 construct: purchased DiscoveRx KINOMEscan
How it was run: as §1

[11] = target: T11, CDK8 (Homo sapiens, UniProt P49336)
T11 construct: purchased DiscoveRx KINOMEscan
How it was run: as §1

[12] = target: T12, GRK7 (Homo sapiens, UniProt Q8WTQ7)
T12 construct: purchased DiscoveRx KINOMEscan
How it was run: as §1

[13] = target: T13, MARK3 (Homo sapiens, UniProt P27448)
T13 construct: purchased DiscoveRx KINOMEscan
How it was run: as §1

[14] = target: T14, TLK2 (Homo sapiens, UniProt Q86UE8)
T14 construct: purchased DiscoveRx KINOMEscan
How it was run: as §1

[15] = target: T15, TYRO3 (Homo sapiens, UniProt Q06418)
T15 construct: purchased DiscoveRx KINOMEscan
How it was run: as §1

[16] = target: T16, IRAK1 (Homo sapiens, UniProt P51617)
T16 construct: purchased DiscoveRx KINOMEscan
How it was run: as §1

[17] = target: T17, EPHB6 (Homo sapiens, UniProt O15197)
T17 construct: purchased DiscoveRx KINOMEscan
How it was run: as §1

[18] = target: T18, MEK1 (Homo sapiens, UniProt Q02750)
T18 construct: purchased DiscoveRx KINOMEscan
How it was run: as §1

[19] = target: T19, FGFR1 (Homo sapiens, UniProt P11362)
T19 construct: purchased DiscoveRx KINOMEscan
How it was run: as §1

[20] = target: T20, PRKG2 (Homo sapiens, UniProt Q13237)
T20 construct: purchased DiscoveRx KINOMEscan
How it was run: as §1

[21] = target: T21, MRCKA (Homo sapiens, UniProt Q5VT25)
T21 construct: purchased DiscoveRx KINOMEscan
How it was run: as §1

[22] = target: T22, KIT(D816H) (Homo sapiens, UniProt P10721, D816H)
T22 construct: purchased DiscoveRx KINOMEscan

[23] = target: T23, EPHB4 (Homo sapiens, UniProt P54760)
T23 construct: purchased DiscoveRx KINOMEscan
How it was run: as §1

[24] = target: T24, PIK3CA (Homo sapiens, UniProt P42336)
T24 construct: purchased DiscoveRx KINOMEscan
How it was run: as §1

[25] = target: T25, IRAK3 (Homo sapiens, UniProt Q9Y616)
T25 construct: purchased DiscoveRx KINOMEscan
How it was run: as §1

[26] = target: T26, MARK4 (Homo sapiens, UniProt Q96L34)
T26 construct: purchased DiscoveRx KINOMEscan
How it was run: as §1

[27] = target: T27, FLT3(N841I) (Homo sapiens, UniProt P36888, N841I)
T27 construct: purchased DiscoveRx KINOMEscan

[28] = target: T28, RIOK2 (Homo sapiens, UniProt Q9BVS4)
T28 construct: purchased DiscoveRx KINOMEscan
How it was run: as §1

[29] = target: T29, GSK3B (Homo sapiens, UniProt P49841)
T29 construct: purchased DiscoveRx KINOMEscan
How it was run: as §1

[30] = target: T30, LTK (Homo sapiens, UniProt P29376)
T30 construct: purchased DiscoveRx KINOMEscan
How it was run: as §1

[31] = target: T31, SRMS (Homo sapiens, UniProt Q9H3Y6)
T31 construct: purchased DiscoveRx KINOMEscan
How it was run: as §1

T25 sequence (Q9Y616 whole entry): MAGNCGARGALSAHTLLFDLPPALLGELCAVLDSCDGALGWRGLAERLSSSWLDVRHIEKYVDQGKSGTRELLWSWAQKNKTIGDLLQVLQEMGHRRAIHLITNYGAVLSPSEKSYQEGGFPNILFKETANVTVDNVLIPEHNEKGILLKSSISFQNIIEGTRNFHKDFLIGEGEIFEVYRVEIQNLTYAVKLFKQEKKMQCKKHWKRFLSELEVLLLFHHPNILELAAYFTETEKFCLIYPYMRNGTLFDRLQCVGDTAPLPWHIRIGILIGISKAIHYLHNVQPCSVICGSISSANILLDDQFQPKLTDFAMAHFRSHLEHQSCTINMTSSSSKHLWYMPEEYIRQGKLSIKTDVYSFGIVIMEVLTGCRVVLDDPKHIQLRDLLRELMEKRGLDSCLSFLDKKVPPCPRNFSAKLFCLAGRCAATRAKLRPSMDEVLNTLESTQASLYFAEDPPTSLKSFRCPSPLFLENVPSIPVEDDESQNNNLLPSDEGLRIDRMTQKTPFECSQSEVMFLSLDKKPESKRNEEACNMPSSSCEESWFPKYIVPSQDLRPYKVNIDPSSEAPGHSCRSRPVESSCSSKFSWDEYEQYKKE
T24 sequence (P42336 whole entry): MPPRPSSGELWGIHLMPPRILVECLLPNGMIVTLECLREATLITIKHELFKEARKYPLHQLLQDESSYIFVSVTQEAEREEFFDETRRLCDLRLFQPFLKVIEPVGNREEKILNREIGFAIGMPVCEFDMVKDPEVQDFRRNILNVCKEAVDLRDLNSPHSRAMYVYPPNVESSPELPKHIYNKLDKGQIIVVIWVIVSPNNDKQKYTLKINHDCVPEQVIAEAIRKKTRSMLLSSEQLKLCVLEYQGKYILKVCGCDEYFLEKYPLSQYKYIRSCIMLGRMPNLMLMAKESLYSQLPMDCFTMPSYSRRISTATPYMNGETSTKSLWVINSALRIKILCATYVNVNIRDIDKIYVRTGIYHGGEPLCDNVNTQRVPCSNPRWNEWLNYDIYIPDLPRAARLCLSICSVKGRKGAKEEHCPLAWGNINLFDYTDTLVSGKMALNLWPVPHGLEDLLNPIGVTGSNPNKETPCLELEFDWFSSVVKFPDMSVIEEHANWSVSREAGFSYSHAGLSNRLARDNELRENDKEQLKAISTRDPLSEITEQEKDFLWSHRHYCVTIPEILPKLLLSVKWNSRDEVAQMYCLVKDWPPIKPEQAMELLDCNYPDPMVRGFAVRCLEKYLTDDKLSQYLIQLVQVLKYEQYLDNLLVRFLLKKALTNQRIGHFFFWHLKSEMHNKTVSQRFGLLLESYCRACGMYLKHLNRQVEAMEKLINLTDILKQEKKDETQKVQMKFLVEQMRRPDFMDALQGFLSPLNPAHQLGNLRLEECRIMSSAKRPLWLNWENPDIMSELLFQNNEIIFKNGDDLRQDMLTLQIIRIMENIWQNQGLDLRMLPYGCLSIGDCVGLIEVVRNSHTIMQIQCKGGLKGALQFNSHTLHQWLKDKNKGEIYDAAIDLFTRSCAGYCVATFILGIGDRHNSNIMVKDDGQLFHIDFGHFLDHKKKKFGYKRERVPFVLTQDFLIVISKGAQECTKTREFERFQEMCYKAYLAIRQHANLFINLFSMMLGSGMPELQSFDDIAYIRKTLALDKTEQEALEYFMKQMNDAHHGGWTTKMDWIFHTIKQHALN
T5 sequence (Q9BX84 whole entry): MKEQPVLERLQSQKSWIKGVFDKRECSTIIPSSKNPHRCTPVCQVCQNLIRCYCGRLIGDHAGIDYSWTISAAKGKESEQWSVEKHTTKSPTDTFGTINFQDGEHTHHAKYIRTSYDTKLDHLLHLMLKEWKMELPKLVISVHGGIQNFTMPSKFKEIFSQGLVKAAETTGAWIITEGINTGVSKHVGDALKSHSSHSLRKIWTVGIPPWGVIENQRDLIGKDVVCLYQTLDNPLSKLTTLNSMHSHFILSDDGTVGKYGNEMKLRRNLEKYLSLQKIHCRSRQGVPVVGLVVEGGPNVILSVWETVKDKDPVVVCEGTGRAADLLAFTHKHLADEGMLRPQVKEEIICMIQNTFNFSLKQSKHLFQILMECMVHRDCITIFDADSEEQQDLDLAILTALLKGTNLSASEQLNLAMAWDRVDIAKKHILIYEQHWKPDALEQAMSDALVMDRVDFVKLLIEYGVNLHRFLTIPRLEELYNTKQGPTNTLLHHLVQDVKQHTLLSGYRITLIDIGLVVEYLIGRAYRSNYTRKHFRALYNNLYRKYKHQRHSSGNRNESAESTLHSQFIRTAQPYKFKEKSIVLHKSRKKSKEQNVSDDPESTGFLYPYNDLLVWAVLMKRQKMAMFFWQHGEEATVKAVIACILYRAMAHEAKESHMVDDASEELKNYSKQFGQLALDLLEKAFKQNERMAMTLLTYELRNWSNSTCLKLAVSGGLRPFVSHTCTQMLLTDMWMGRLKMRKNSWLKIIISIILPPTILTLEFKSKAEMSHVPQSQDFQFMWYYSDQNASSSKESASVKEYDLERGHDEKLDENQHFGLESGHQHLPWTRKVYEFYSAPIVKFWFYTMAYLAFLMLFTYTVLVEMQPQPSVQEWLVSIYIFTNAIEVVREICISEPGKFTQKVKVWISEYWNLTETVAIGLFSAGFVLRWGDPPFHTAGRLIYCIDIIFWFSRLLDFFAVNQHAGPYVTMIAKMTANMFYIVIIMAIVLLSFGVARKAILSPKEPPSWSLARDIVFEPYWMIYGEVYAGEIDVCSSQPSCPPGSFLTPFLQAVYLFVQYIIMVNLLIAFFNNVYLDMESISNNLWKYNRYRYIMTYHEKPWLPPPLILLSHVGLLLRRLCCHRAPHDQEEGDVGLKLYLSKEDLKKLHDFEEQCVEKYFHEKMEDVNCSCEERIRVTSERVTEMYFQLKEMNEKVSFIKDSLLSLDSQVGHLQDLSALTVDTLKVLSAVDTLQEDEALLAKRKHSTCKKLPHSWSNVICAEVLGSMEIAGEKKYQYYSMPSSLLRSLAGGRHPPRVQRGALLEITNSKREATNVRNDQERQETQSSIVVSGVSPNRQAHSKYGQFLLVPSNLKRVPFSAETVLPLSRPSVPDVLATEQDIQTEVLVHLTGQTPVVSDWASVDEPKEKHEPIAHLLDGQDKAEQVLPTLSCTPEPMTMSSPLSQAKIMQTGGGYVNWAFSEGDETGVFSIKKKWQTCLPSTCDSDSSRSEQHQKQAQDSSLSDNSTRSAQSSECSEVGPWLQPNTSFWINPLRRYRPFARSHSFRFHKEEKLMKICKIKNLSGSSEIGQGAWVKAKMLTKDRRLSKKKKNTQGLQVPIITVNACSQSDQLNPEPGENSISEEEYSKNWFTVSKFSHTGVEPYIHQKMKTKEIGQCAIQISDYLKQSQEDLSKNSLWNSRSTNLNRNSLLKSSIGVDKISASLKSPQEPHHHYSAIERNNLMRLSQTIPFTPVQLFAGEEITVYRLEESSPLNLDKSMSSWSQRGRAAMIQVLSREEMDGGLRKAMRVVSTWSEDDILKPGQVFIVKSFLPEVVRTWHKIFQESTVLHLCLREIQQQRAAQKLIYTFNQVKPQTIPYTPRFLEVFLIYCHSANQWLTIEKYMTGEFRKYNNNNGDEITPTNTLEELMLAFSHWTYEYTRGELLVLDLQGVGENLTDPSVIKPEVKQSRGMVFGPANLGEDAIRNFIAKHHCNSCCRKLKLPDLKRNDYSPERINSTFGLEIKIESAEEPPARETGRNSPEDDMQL
T18 sequence (Q02750 whole entry): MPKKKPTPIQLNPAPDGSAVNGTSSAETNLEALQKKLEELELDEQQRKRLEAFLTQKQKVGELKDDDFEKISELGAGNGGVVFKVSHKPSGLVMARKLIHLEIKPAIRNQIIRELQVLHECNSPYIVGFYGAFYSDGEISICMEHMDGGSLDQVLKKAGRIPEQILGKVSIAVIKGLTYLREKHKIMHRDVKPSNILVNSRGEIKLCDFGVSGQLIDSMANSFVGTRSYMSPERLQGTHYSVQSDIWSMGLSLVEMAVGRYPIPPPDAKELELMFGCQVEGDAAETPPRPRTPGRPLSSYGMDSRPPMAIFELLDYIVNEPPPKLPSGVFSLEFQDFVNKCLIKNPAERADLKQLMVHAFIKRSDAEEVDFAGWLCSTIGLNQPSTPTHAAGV
T2 sequence (Q9Y6E0 whole entry): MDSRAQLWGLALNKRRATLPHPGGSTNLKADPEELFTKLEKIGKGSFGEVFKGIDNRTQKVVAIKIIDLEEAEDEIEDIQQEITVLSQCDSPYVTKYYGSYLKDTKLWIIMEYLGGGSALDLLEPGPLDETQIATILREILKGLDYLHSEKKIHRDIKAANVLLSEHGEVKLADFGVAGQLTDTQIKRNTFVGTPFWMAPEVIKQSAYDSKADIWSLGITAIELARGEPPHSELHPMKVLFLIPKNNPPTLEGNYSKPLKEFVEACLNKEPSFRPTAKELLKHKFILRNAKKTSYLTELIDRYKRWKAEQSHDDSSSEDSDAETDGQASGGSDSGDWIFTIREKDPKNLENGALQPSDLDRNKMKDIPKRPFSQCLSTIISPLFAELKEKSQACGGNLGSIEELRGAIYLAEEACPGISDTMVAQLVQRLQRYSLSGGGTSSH
T10 sequence (O14965 whole entry): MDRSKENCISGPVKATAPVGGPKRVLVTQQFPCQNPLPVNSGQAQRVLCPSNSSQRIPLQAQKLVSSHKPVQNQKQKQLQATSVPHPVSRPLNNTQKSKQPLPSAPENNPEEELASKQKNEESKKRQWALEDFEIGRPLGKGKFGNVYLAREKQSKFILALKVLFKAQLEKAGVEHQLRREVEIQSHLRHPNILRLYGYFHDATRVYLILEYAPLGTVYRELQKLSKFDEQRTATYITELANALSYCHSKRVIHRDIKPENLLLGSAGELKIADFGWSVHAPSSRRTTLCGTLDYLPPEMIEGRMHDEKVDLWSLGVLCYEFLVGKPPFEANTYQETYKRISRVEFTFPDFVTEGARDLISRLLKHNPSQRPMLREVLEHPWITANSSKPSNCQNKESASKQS

With `Cc1ccc(C2=Nc3cccnc3S(=O)(=O)c3ccccc32)cc1` [TBPT, 6-(p-tolyl)benzo[f] pyrido[2,3-b][1,4] thiazepine 11,11-dioxide] the remaining binding at 5 µM ([1]; 5 μM) was 88%, the remaining binding at 10 µM ([1]; 10 μM) was 100% and the remaining binding at 5 µM ([2]; 5 μM) was 95%. For the same compound, the remaining binding at 10 µM ([2]; 10 μM) was 96%, the remaining binding at 5 µM ([3]; 5 μM) was 87% and the remaining binding at 10 µM ([3]; 10 μM) was 93%. For the same compound, the remaining binding at 5 µM ([4]; 5 μM) was 98%, the remaining binding at 10 µM ([4]; 10 μM) was 93% and the remaining binding at 5 µM ([5]; 5 μM) was 100%. It also gave a remaining binding at 10 µM ([5]; 10 μM) of 85%, a remaining binding at 5 µM ([6]; 5 μM) of 100% and a remaining binding at 10 µM ([6]; 10 μM) of 91%. The remaining binding at 5 µM ([7]; 5 μM) was 91%, the remaining binding at 10 µM ([7]; 10 μM) was 92% and the remaining binding at 5 µM ([8]; 5 μM) was 83%. For the same compound, the remaining binding at 10 µM ([8]; 10 μM) was 100%, the remaining binding at 5 µM ([9]; 5 μM) was 83% and the remaining binding at 10 µM ([9]; 10 μM) was 94%. The remaining binding at 5 µM ([10]; 5 μM) was 100%, the remaining binding at 10 µM ([10]; 10 μM) was 100% and the remaining binding at 5 µM ([11]; 5 μM) was 94%. For the same compound, the remaining binding at 10 µM ([11]; 10 μM) was 100%, the remaining binding at 5 µM ([12]; 5 μM) was 100% and the remaining binding at 10 µM ([12]; 10 μM) was 100%. It also gave a remaining binding at 5 µM ([13]; 5 μM) of 96%, a remaining binding at 10 µM ([13]; 10 μM) of 87% and a remaining binding at 5 µM ([14]; 5 μM) of 100%. For the same compound, the remaining binding at 10 µM ([14]; 10 μM) was 100%, the remaining binding at 5 µM ([15]; 5 μM) was 99% and the remaining binding at 10 µM ([15]; 10 μM) was 100%. The remaining binding at 5 µM ([16]; 5 μM) was 100%, the remaining binding at 10 µM ([16]; 10 μM) was 93% and the remaining binding at 5 µM ([17]; 5 μM) was 99%. It also gave a remaining binding at 10 µM ([17]; 10 μM) of 100%, a remaining binding at 5 µM ([18]; 5 μM) of 100% and a remaining binding at 10 µM ([18]; 10 μM) of 92%. The remaining binding at 5 µM ([19]; 5 μM) was 98%, the remaining binding at 10 µM ([19]; 10 μM) was 100% and the remaining binding at 5 µM ([20]; 5 μM) was 88%. The remaining binding at 10 µM ([20]; 10 μM) was 98%, the remaining binding at 5 µM ([21]; 5 μM) was 89% and the remaining binding at 10 µM ([21]; 10 μM) was 99%. It also gave a remaining binding at 5 µM ([22]; 5 μM) of 71%, a remaining binding at 10 µM ([22]; 10 μM) of 100% and a remaining binding at 5 µM ([23]; 5 μM) of 100%. For the same compound, the remaining binding at 10 µM ([23]; 10 μM) was 98%, the remaining binding at 5 µM ([24]; 5 μM) was 100% and the remaining binding at 10 µM ([24]; 10 μM) was 82%. The remaining binding at 5 µM ([25]; 5 μM) was 92%, the remaining binding at 10 µM ([25]; 10 μM) was 82% and the remaining binding at 5 µM ([26]; 5 μM) was 81%. For the same compound, the remaining binding at 10 µM ([26]; 10 μM) was 100%, the remaining binding at 5 µM ([27]; 5 μM) was 85% and the remaining binding at 10 µM ([27]; 10 μM) was 100%. It also gave a remaining binding at 5 µM ([28]; 5 μM) of 95%, a remaining binding at 10 µM ([28]; 10 μM) of 100% and a remaining binding at 5 µM ([29]; 5 μM) of 89%. For the same compound, the remaining binding at 10 µM ([29]; 10 μM) was 100%, the remaining binding at 5 µM ([30]; 5 μM) was 100% and the remaining binding at 10 µM ([30]; 10 μM) was 100%. For the same compound, the remaining binding at 5 µM ([31]; 5 μM) was 87% and the remaining binding at 10 µM ([31]; 10 μM) was 97%.
